Consider 19 molecules from ChEMBL document CHEMBL5512624, “OSMAC Strategy: A promising way to explore microbial cyclic peptides” (Eur J Med Chem, 2024).

Values after ≈ are worked out from the molar mass of the structure shown. Numbered stars: 1 amine (or outer) side, 2 acyl side, 3 side chain; on linkers, the order of the positions; unused ones are H or OH. Square brackets hold non-standard residues; d marks the D form. Peptide text beside a SMILES is read from it. X5 = C=C(N[*:1])c1nc(-c2nc(C(=O)[*:2])ccc2-c2nccs2)co1; X1 = CCC(C)CCCCCCCCCCC[C@H](N[*:1])C(=O)[*:2]; X7 = CC(C)CCCCCCCCCCC[C@H](N[*:1])C(=O)[*:2]; X2 = CCC(C)CCCCCCCCC[C@H](N[*:1])C(=O)[*:2]; X6 = CC(C)CCCCCCCCCC[C@H](N[*:1])C(=O)[*:2]; X8 = CCCCCCCCCCCCCC[C@H](N[*:1])C(=O)[*:2]; Gly(Dodecyl) = CCCCCCCCCCCC[C@H](N)C(=O)O; X3 = C/C=C(\N[*:1])c1nc(C(=O)[*:2])co1; X4 = C=C(N[*:1])c1nc(C(=O)[*:2])c(C)o1; NMeY = CN[C@@H](Cc1ccc(O)cc1)C(=O)O; Val(3-OH) = CC(C)(O)[C@H](N)C(=O)O; Dha = C=C(N)C(=O)O

The test system of assay [1] is Aspergillus niger. Description: Antifungal activity against Aspergillus niger assessed as fungal growth inhibition. The class given is functional.
Assay [2] deals with Aspergillus fumigatus. The experiment in a line: Antifungal activity against Aspergillus fumigatus ATCC 46645 assessed as fungal growth inhibition incubated for 24 hrs by CLSI protocol based broth microdilution method. In kind it is functional, organism-based. The conditions noted are these: ATCC 46645, 24 h.
Assay [3] concerns Influenza A virus. Description: Antiviral activity against Influenza A virus H9N2 infected in MDCK cells assessed as inhibition of viral replication. In kind it is functional, organism-based.
Assay [4] relates to Human alphaherpesvirus 1. The experiment in a line: Antiviral activity against HSV-1 infected in African green monkey Vero cells by plaque reduction assay. In kind it is functional, organism-based. The conditions noted are these: Human alphaherpesvirus 1, Vero. In general terms: Plaque reduction counts the foci of infection that form in a cell layer.
Assay [5] can be described thus: Inhibition rat liver microsome ACAT. The class given is microsomes. A general note: Microsomes from liver hold many membrane-bound enzymes, among them those of drug oxidation.
Assay [6] has as its system SW480. The experiment in a line: Cytotoxicity against human SW480 cells assessed as reduction in cell viability incubated for 24 hrs by MTT assay. In kind it is functional, cell-based. As to conditions: SW480, 24 h.
Assay [7] concerns MCF7. Description: Cytotoxicity against human MCF7 cells assessed as reduction in cell viability incubated for 24 hrs by MTT assay. In kind it is functional, cell-based. The conditions noted are these: MCF7, 24 h.
Assay [8] has as its system HL-60. Description: Cytotoxicity against human HL-60 cells assessed as reduction in cell viability incubated for 24 hrs by MTT assay. The class given is functional, cell-based. As to conditions: HL-60, 24 h. For orientation: Tetrazolium dyes change colour on reduction, which living cells bring about.
In assay [9] the test system is Plasmodium falciparum. The experiment in a line: Antiplasmodial activity against Plasmodium falciparum 3D7 assessed as reduction in parasite growth incubated for 72 hrs by SYBR Green dye based fluorescence assay. The class given is functional, organism-based. The conditions noted are these: 3D7, 72 h.
The test system of assay [10] is Trypanosoma cruzi. Description: Antitrypanosomal activity against Trypanosoma cruzi amastigote assessed as parasite growth inhibition incubated for 24 hrs by light microscopic analysis. In kind it is functional, organism-based.

Broadly, the MIC is the lowest concentration that inhibits growth of the organism. On to `CCCCCCCCCCCCCC[C@@H]1NC(=O)[C@@H]2CCCN2C(=O)[C@H](CCC(N)=O)NC(=O)[C@H](CC(N)=O)NC(=O)[C@H](CO)NC(=O)[C@H](CC(N)=O)NC(=O)[C@H](Cc2ccc(O)cc2)NC(=O)[C@H](CC(N)=O)NC1=O` (cyclo(NQP[X8]NYNS)), for which the minimal inhibitory concentration (MIC) in [1] amounted to 3.12 µg/mL (≈ 2.91 µM). The IC50 is the concentration that inhibits the measured activity by half. `CCCCCCC/C=C/C=C/C=C/[C@H](C[C@H](O)C[C@@H]1CC(=O)NC[C@@H](C)C(=O)N[C@@H](C[C@H](O)CO)C(=O)N[C@H](CC(N)=O)C(=O)N[C@@H](C[C@H](O)CO)C(=O)N1)OC`: the IC50 in assay [2] was 4 µM.

On to `C=C(NC(=O)c1nc(C(=C)NC(=O)[C@@H](NC(=O)C(=C)NC(=O)c2coc(/C(=C/C)NC(=O)[C@@H](NC(C)=O)[C@@H](C)O)n2)C(C)C)oc1C)C(=O)NC(=C)c1nc(-c2nc(C(N)=O)ccc2-c2nccs2)co1`, for which the half-maximal inhibitory concentration (IC50) in assay [3] stood at 28.7 µM. With `CCC(C)CCCCCCCCC[C@@H]1NC(=O)[C@@H]2CCCN2C(=O)[C@H](CCC(N)=O)NC(=O)[C@H](CC(N)=O)NC(=O)[C@H](CO)NC(=O)[C@H](CC(N)=O)NC(=O)[C@H](Cc2ccc(O)cc2)NC(=O)[C@H](CC(N)=O)NC1=O` (some centres not stated) (cyclo(NQP[X2]NYNS)), in assay [1], the MIC was found to be 3.12 µg/mL (≈ 2.95 µM). Molecule `COc1ccc(C[C@@H]2NC(=O)[C@@H]3CCCN3C(=O)[C@H](C(C)C)NC(=O)[C@H](Cc3ccc(O)cc3)N(C)C(=O)[C@H](Cc3ccc(OC)cc3)NC2=O)cc1` (cyclo([NMeY]VPY(Me)Y(Me))) returned an IC50 in [4] of 9.5 µM.

For the molecule `CC(C)CCCCCCCCCC[C@@H]1NC(=O)[C@@H]2CCCN2C(=O)[C@H](CCC(N)=O)NC(=O)[C@H](CC(N)=O)NC(=O)[C@H](CO)NC(=O)[C@H](CC(N)=O)NC(=O)[C@H](Cc2ccc(O)cc2)NC(=O)[C@H](CC(N)=O)NC1=O` (cyclo(NQP[X6]NYNS)), the MIC in [1] was determined as 3.12 µg/mL (≈ 2.95 µM). As to `C=C(NC(=O)c1ccc(-c2nccs2)c(-c2coc(C(=C)NC(=O)C(=C)NC(=O)c3nc(C(=C)NC(=O)[C@@H](NC(=O)C(=C)NC(=O)c4coc(/C(=C/C)NC(=O)[C@@H](NC(C)=O)[C@@H](C)O)n4)C(C)(C)O)oc3C)n2)n1)C(N)=O` (Ac-T[X3][Dha][Val(3-OH)][X4][Dha][X5][Dha]-NH2), the IC50 in [3] turned out to be 7.3 µM.

With `CC(C)CCCCCCCCCCC[C@@H]1NC(=O)[C@@H]2CCCN2C(=O)[C@H](CCC(N)=O)NC(=O)[C@H](CC(N)=O)NC(=O)[C@H](CO)NC(=O)[C@H](CC(N)=O)NC(=O)[C@H](Cc2ccc(O)cc2)NC(=O)[C@H](CC(N)=O)NC1=O` (cyclo(NQP[X7]NYNS)), the MIC in [1] was 3.12 µg/mL (≈ 2.91 µM). For `CCCCCCCCCCCC[C@@H]1NC(=O)[C@@H]2CCCN2C(=O)[C@H](CCC(N)=O)NC(=O)[C@H](CC(N)=O)NC(=O)[C@H](CO)NC(=O)[C@H](CC(N)=O)NC(=O)[C@H](Cc2ccc(O)cc2)NC(=O)[C@H](CC(N)=O)NC1=O` (cyclo(NQP[Gly(Dodecyl)]NYNS)), the MIC in [1] is 3.12 µg/mL (≈ 2.99 µM).

`CCCCCCC/C=C/C=C/C=C/[C@H](C[C@H](O)C[C@H]1NC(=O)[C@H](C[C@H](O)CO)NC(=O)[C@@H](CC(N)=O)NC(=O)[C@H](CC(N)=O)NC(=O)[C@H](C)CNC(=O)[C@H]1O)OC`: the IC50 in [2] came out at 4 µM.

On to `CCCCCCC/C=C/C=C/C=C/[C@H](C[C@H](O)C[C@H]1NC(=O)[C@H](C[C@H](O)C(C)O)NC(=O)[C@@H](CC(N)=O)NC(=O)[C@H](CC(N)=O)NC(=O)[C@H](C)CNC(=O)[C@H]1O)OC` (some centres not stated), for which the IC50 in [2] came to 4 µM.

For the molecule `CCCCCCC/C=C/C=C/C=C/[C@H](C[C@H](O)C[C@H]1NC(=O)[C@H](C[C@H](O)CO)NC(=O)[C@@H](CC(N)=O)NC(=O)[C@H](C[C@H](O)CO)NC(=O)[C@H](C)CNC(=O)[C@H]1O)OC`, the IC50 in [2] worked out at 4 µM.

As for `CCC(C)CCCCCCCCCCC[C@@H]1NC(=O)[C@@H]2CCCN2C(=O)[C@H](CCC(N)=O)NC(=O)[C@H](CC(N)=O)NC(=O)[C@H](CO)NC(=O)[C@H](CC(N)=O)NC(=O)[C@H](Cc2ccc(O)cc2)NC(=O)[C@H](CC(N)=O)NC1=O` (some centres not stated) (cyclo(NQP[X1]NYNS)), the MIC in [1] was 3.12 µg/mL (≈ 2.87 µM). For `C=C(NC(=O)C(=C)NC(=O)c1ccc(-c2nccs2)c(-c2coc(C(=C)NC(=O)C(=C)NC(=O)c3nc(C(=C)NC(=O)[C@@H](NC(=O)C(=C)NC(=O)c4coc(/C(=C/C)NC(=O)[C@@H](NC(C)=O)[C@@H](C)O)n4)C(C)C)oc3C)n2)n1)C(N)=O` (Ac-T[X3][Dha]V[X4][Dha][X5][Dha][Dha]-NH2), the half-maximal inhibitory concentration (IC50) in assay [3] stood at 18.3 µM. As to `CC(C)[C@H]1OC(=O)[C@H](Cc2ccccc2)N(C)C(=O)[C@@H](C(C)C)OC(=O)[C@H](Cc2ccccc2)N(C)C(=O)[C@@H](C(C)C)OC(=O)[C@H](Cc2ccccc2)N(C)C1=O`, in assay [5], 3 µM corresponded to half-maximal inhibition (IC50). Take `CC[C@H](C)[C@@H]1NC(=O)[C@@H]2[C@H](C)CCN2C(=O)[C@H](C[C@H](O)CCl)OC(=O)CCNC(=O)[C@@H](C)N(C)C(=O)[C@H]([C@@H](C)CC)N(C)C1=O`: the IC50 in assay [6] was determined as 0.107 µM; in [7], 0.079 µM; in assay [8] it was 0.149 µM. For the molecule `C=C(NC(=O)C(=C)NC(=O)c1ccc(-c2nccs2)c(-c2coc(C(=C)NC(=O)C(=C)NC(=O)c3nc(C(=C)NC(=O)[C@@H](NC(=O)C(=C)NC(=O)c4coc(/C(=C/C)NC(=O)[C@@H](NC(C)=O)[C@@H](C)O)n4)C(C)(C)O)oc3C)n2)n1)C(N)=O` (Ac-T[X3][Dha][Val(3-OH)][X4][Dha][X5][Dha][Dha]-NH2), in [3], the IC50 came to 15.3 µM. `COc1ccc2c3c([nH]c2c1)[C@H](C=C(C)C)N1C(=O)[C@@H]2CCCN2C(=O)[C@@H]1C3` [FUMITREMORGIN]: the IC50 in assay [9] came to 2.3 µM; in assay [10], 9.6 µM.

Regarding `CCCCCCC/C=C/C=C/C=C/[C@H](C[C@H](O)C[C@@H]1CC(=O)NC[C@@H](C)C(=O)N[C@@H](CC(N)=O)C(=O)N[C@H](CC(N)=O)C(=O)N[C@@H](C[C@H](O)CO)C(=O)N1)OC`, the IC50 in assay [2] came to 4 µM.
